From US20160215268A1, “Suspension Culturing of Pluripotent Stem Cells” (Janssen Biotech, Inc., priority 2014, published 2016)

System: human embryonic stem cell line H1
Experiment: OpenArray qRT-PCR mRNA expression in differentiating H1 cells
Type: cell-based
Conditions: Example 5, condition A, beginning of Stage 6, 100 nM
Description: In addition to monitoring the metabolic profile of the spent media through daily sampling, representative samples of cells were obtained throughout the differentiation process and tested for mRNA expression of a panel of genes via Applied Biosystems® OpenArray® (Life Technologies) and calculated as fold difference in expression compared to pluripotent ISM cells after 24 hours in culture from the beginning of the experiment. FIGS. 2A through M depict data for expression of the following genes in cells differentiated through the first day of Stage 5: PDX1 (FIG.2A); NKX6.1 (FIG. 2B); PAX4 (FIG. 2C); PAX6 (FIG. 2D); NEUROG3(NGN3) (FIG. 2E); ABCC8 (FIG. 2F); Chromogranin-A (“CHGA”) (FIG. 2G); G6PC2 (FIG. 2H); IAPP (FIG. 2I); insulin (“INS”) (FIG. 2J); glucagon (“GCG”) (FIG. 2K); PTF1a (FIG. 2L); and NEUROD1 (FIG. 2M).
In addition to determining cell protein expression by flow cytometry, samples throughout Stages 3 and 4 of the differentiation process were tested for mRNA expression of a gene panel using OpenArray® qRT-PCR. […]
Throughout the differentiation process cell samples were collected from the suspension cultures for analysis. Samples were analyzed for mRNA expression (OpenArray® qRT-PCR) and protein expression (flow cytometry and florescent immune-histochemistry).

`C[C@H](NC(=O)Cc1cc(F)cc(F)c1)C(=O)N[C@@H]1C(=O)N(C)c2ccccc2-c2ccccc21` [gamma secretase inhibitor XX] was tested, and the NGN3 expression was “second induction of NGN3”.
